The values below are quoted from earlier work in publication PMC5427847, “Epilepsy-associated GRIN2A mutations reduce NMDA receptor trafficking and agonist potency – molecular profiling and functional rescue” (Scientific Reports, 2017).

One data set concerns D732A-GluN1. As to conditions: competitive glycine site antagonist.
In data set [1] the test system is GluN2A K484 to aspartic acid. As to conditions: K484 to aspartic acid versus wild type.
Data set [2] deals with GluN1 D732 mutated to alanine, co-expressed with GluN2A. As to conditions: receptor remaining on the cell surface.

Take `O=C(O)c1cc(=O)c2c(Cl)cc(Cl)cc2[nH]1` [DCKA]: the “Rescue of mutant receptors trapped within the ER” value in the data set on D732A-GluN1 was “has been achieved”.
For `N[C@@H](CCC(=O)O)C(=O)O` [Glutamate, glutamate], in data set [1], the “Reduction of glutamate affinity” value was 6 fold.
Regarding `NCC(=O)O` [Glycine, glycine], the “Effect on glycine binding” value in data set [1] was “no measurable effect”. Further, the “Reduction in glycine potency” value in data set [2] is on record as 4000 fold.
